Calls of active or inactive are those of the source. The rule behind the calls is not given here.
Assays:
[1] = biological target: T1, Voltage-gated L-type calcium channel (Homo sapiens, UniProt Q13936+Q13698+Q01668+O60840); assay: Inhibition of verapamil sensitive L type calcium channel by radioligand […] assay; format: protein assay
[2] = biological target: T1, Voltage-gated L-type calcium channel; assay: Inhibition of diltiazem sensitive L type calcium channel by radioligand […] assay; format: protein assay
[3] = biological target: Sodium-dependent noradrenaline transporter (Homo sapiens, UniProt P23975); assay: Inhibition of noradrenaline reuptake at human recombinant noradrenaline transporter
Chain of Sodium-dependent noradrenaline transporter (P23975 whole entry): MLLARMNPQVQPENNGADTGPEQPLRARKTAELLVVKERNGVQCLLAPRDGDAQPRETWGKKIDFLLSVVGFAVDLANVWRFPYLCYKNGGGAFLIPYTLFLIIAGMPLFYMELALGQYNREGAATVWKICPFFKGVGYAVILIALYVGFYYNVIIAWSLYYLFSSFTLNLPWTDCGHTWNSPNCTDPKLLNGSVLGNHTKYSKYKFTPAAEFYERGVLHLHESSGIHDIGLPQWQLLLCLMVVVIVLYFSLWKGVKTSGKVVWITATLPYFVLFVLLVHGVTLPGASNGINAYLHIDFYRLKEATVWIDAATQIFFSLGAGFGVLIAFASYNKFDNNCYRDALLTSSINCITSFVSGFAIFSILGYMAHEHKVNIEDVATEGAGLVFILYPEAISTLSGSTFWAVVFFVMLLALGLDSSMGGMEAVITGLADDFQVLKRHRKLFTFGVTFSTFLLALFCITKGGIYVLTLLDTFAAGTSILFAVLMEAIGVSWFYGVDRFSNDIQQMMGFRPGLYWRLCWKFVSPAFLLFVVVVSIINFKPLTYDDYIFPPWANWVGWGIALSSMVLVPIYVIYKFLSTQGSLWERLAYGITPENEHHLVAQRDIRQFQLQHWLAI

[4] = biological target: Sodium-dependent serotonin transporter (Homo sapiens, UniProt P31645); assay: Inhibition of serotonin reuptake at human recombinant serotonin transporter
Chain of Sodium-dependent serotonin transporter (P31645 whole entry): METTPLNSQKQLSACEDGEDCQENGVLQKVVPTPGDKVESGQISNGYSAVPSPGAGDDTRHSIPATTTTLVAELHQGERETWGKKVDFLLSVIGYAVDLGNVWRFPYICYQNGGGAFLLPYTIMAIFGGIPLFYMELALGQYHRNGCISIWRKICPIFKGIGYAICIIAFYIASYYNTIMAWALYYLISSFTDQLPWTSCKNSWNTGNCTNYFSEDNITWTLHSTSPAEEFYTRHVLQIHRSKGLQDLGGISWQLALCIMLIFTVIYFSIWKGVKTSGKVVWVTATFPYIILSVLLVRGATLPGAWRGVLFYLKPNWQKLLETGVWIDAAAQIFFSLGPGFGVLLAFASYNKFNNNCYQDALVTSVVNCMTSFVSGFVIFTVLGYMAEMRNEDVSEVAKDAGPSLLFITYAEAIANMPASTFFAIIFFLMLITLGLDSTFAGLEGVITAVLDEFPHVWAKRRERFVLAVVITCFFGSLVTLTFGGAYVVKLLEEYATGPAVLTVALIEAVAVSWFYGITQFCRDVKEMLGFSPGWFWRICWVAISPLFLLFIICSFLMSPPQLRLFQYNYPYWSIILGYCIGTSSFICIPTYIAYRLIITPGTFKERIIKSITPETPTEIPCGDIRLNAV

[5] = Inhibitory activity against site 2 of sodium channel by radioligand […] assay
Mustela putorius furo [6] = assay: Activity against morphine-induced emesis in ferret at 50 mg/kg; format: functional, organism-based; set-up: dose 50 mg/kg
Mustela putorius furo [7] = assay: Inhibition of morphine-induced emesis in ferret at 5 mg/kg; format: functional
Mustela putorius furo [8] = assay: Activity against morphine-induced emesis in ferret at 1 mg/kg; format: functional, organism-based; set-up: dose 1 mg/kg
[9] = Plasma half life in ferret at 5 mg/kg, po; format: ADME, organism-based, Mustela putorius furo; set-up: dose 5 mg/kg, route oral
[10] = Cmax in ferret at 5 mg/kg, po; format: ADME, organism-based, Mustela putorius furo; set-up: dose 5 mg/kg, route oral; details: in vivo

With `COc1ccc([C@H](CN(C)C)[Si]2(O)CCCCC2)cc1` the IC50 [1] was 8.6 µM, the IC50 [2] was 2.7 µM and the IC50 [3] was 0.2 µM. For the same compound, the IC50 [4] was 4.2 µM, the IC50 [5] was 5.1 µM and the Activity (Mustela putorius furo [6]) was “Active”. The inhibition in vivo at 5 mg/kg (Mustela putorius furo [7]) was 93%, the Activity (Mustela putorius furo [8]) was “inactive” and the half-life [9] was 1.1 h. The Cmax [10] was 225 ng/mL.

Source: ChEMBL document CHEMBL1147023, “(R)-sila-venlafaxine: a selective noradrenaline reuptake inhibitor for the treatment of emesis” (Bioorg Med Chem Lett, 2006)
